From publication PMC12064818, “A general assay platform to study protein pharmacology using ligand-dependent structural dynamics” (Nature Communications, 2025) come the findings set out here.

One assay addresses T1, NLuc (Oplophorus gracilirostris, UniProt Q9GV45, A31E/A60N/A81I/F95D/I117V/K70R/L54V/L99Q/M102K/N193R/P142E/Q151K/Q38R/Q45L/V71I/Y165I).
T1 construct: His tag (inferred from IMAC purification); made in house; host or cells: E. coli
Type of assay: biochemical. The note with it: ±ATP. In outline: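 Luminescence was read 10 min after Nano-Glo reagent addition. Enzyme was 1 nM NLuc in PBS/0.05% IGEPAL buffer, with or without ATP.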

Assay [1] concerns the target FLuc-C-NLuc (firefly luciferase) (Photinus pyralis, UniProt P08659, form not given/L550V). Nature of the assay: Firefly luciferase (FLuc) enzymatic luminescence assay, FLuc-C-NLuc. The assay is classed as biochemical. Details: key to Enz: % normalized; no enzyme control = 100% inhibition, DMSO = 0. The note with it: Log[Compound]. The protocol:
The enzyme activity of FLuc-N-HiBiT, FLuc-C-HiBiT, and FLuc-C-NLuc was measured similar to P. pyralis firefly luciferase (FLuc) as previously described. […] Compounds and controls were added to each plate as described in Supplementary Data 8 with a Hornet pintool system (Wako Automation). Compounds were incubated with respective enzymes for 30–60 min at room temperature protected from light and covered by solid metal lid to prevent evaporation. […] Luciferin was incubated with FLuc enzyme for 5 min before FLuc activity was then measured on a ViewLux CCD imager (PerkinElmer), with exposure times up to ten seconds with medium to high gain settings. Data were normalized to average no enzyme control as 100% enzyme inhibition and average DMSO neutral control. See Supplementary Table 4 for additional details.
Supplementary Table 4. Protocol for Firefly luciferase (FLuc) and NanoLuc (NLuc) enzymatic
Supplementary Table 4: Protocol for Firefly luciferase (FLuc) and NanoLuc (NLuc) enzym atic lum inescence assay
Firefly luciferase (FLuc) enzym atic lum inescence assay
Sequence Param eter Value Description
No enzym e control (colum n 1) and enzym e solution (1- 10 nM FLuc enzym e) in FLuc assay
1 Reagent 4 µLbuffer; white/solid bottom , m edium bind, high base plates (Greiner), dispensed with BioRaptr
com pounds transferred to respective colum ns with Pintool
2b Test Com pounds 23 nLconcentration range) in colum ns 5- 48; com pounds transferred to respective wells with
3 Incubation 30 m in Incubate enzym e + com pounds at am bient tem p for 30 m in, protected from light
4 Reagent 3 µLAdd 3 µL of D-luciferin substrate solution to each well (final concentration 10 µM); dispensed
5 Detector ViewLux Read plate lum inescence (Exposure = 1- 10 sec; Gain = Medium -high; Speed = Slow;
Dispensing solution was diluted in 1X PBS, pH 7.4. […]

Assay [2] addresses FLuc-C-HiBiT (firefly luciferase) (Photinus pyralis, UniProt P08659, form not given/L550V). As to the kind of experiment: SDR assay, FLuc-C-HiBiT. The settings on record: for SDR + 10 mM ATP / SDR No ATP: 10 nM FLuc-C-HiBiT, normalized activity, Log [Compound]. For orientation: With HiBiT, luminescence reflects the tagged protein that the partner subunit can reach.

Sequence of FLuc-C-NLuc (firefly luciferase) (P08659 2-550 L550V, form open): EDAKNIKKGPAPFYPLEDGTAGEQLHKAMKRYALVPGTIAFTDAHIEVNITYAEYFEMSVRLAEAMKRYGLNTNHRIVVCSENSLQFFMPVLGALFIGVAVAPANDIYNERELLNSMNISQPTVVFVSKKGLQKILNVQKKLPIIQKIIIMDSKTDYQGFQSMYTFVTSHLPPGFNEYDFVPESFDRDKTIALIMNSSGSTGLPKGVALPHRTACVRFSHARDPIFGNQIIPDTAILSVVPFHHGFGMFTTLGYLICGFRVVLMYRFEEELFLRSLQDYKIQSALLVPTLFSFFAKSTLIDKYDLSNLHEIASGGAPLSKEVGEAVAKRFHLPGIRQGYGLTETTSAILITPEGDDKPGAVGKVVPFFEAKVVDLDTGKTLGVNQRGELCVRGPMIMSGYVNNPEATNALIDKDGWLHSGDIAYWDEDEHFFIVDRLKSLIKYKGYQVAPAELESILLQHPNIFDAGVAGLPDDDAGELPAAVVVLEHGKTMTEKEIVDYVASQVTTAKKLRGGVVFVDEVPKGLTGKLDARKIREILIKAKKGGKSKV
Sequence of FLuc-C-HiBiT (firefly luciferase) (P08659 2-550 L550V, form open): as above
T1 sequence (Q9GV45 other isoform, or with tags, fused parts or gaps with the stated changes): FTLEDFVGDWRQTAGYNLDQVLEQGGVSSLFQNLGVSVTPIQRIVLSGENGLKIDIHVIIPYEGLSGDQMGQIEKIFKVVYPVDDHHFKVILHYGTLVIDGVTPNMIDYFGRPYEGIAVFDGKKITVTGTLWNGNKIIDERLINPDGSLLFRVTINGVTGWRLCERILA

In the case of `Nc1ncnc2c1ncn2[C@@H]1O[C@H](COP(=O)(O)OP(=O)(O)OP(=O)(O)O)[C@@H](O)[C@H]1O` [ATP], at NLuc, the “effect on NLuc activity (in words)” value is “no effect on NLuc activity”.
On to `CC(CNC(=O)C1CCN(C(=O)c2ncn3c2COC(c2ccccc2)C3)CC1)c1ccccc1` (stereo not shown) [compound 00449795], for which the Enz in assay [1] (M -4.48) is -89.10; in assay [1] (M -4.96), -73.93; in assay [1] (M -5.44), -56.58; in assay [1] (M -5.91), -29.78; in assay [1] (M -6.39), -11.92; in assay [1] (M -6.87) it was -0.00581. Also, the Enz worked out at 4.23 in assay [1] (M -7.35); 7.74 in assay [1] (M -7.82); 6.20 in assay [1] (M -8.30); 3.71 in assay [1] (M -8.78); 4.09 in assay [1] (M -9.25). Besides, the “SDR + 10 mM ATP” value is reported as 68.6 in assay [2] (M -4.48); 61.3 in assay [2] (M -4.96); 53.2 in assay [2] (M -5.44); 34.2 in assay [2] (M -5.91); 20.6 in assay [2] (M -6.39); 11.1 in assay [2] (M -6.87). Besides, the “SDR + 10 mM ATP” value in assay [2] (M -7.35) was found to be 7.5; in assay [2] (M -7.82), 10.0; in assay [2] (M -8.30) it was 8.1; in assay [2] (M -8.78) it was 7.1; in assay [2] (M -9.25) it was 7.9. The “SDR No ATP” value in assay [2] (M -4.48) turned out to be 10.5; in assay [2] (M -4.96), 11.6; in assay [2] (M -5.44), 11.0; in assay [2] (M -5.91), 13.6; in assay [2] (M -6.39), 11.0; in assay [2] (M -6.87) it was 10.7. The “SDR No ATP” value in assay [2] (M -7.35) is on record as 9.2; in assay [2] (M -7.82), 13.4; in assay [2] (M -8.30), 10.9; in assay [2] (M -8.78), 11.5; in assay [2] (M -9.25) it was 9.6. Besides, the “% Activity (max response, + ATP)” value in assay [2] (+ ATP, SDR max. response, clade S) is on record as 349.21%. For the same compound, the “% Activity (max response, - ATP)” value in assay [2] (- ATP, SDR max. response, clade S) was found to be 0.00%. Further, the “ATP dependence of SDR assay output (in words)” value in assay [2] (FLuc-C-HiBiT) was “strictly ATP-dependent”.
